Measured values reported in PMC6261607, “Novel high–throughput myofibroblast assays identify agonists with therapeutic potential in pulmonary fibrosis that act via EP2 and EP4 receptors” (PLoS ONE, 2018).
Where two headings read alike, the source gives them in different places.

Experiments:
[1] = tested on: TGF–β1–induced NHLF myofibroblasts; assay: HCA, NHLF myofibroblast reversal assay; format: cell-based; conditions: Homo sapiens; reversal assay: 24 h 5 ng/ml TGF–β1, washed, 72 h compound
Description: Each well of a 384–well clear bottom microtiter plate was coated with 0.1% laminin solution for 60 min at 37°C and rinsed once with PBS. NHLF cells were seeded at a density of 750 cells / well in a volume of 40 μl FGM–2 medium and grown for 24 h at 37°C, 5% CO2 and 95% relative humidity. The plate was washed 3 times with starvation medium, e.g. fibroblast basal medium (FBM, Lonza) supplemented with 0.1% faf BSA, 100 units / ml of penicillin and 100 μg / ml of streptomycin and 250 ng / ml amphotericin B, and then starved for 24 h in 30 μl volume. NHLF were differentiated into myofibroblasts by incubation with 5 ng / ml TGF–β1 (from a stock of 20 μg / ml in 4 mM HCl, 1 mg / ml BSA) for 48 h. Compounds were prepared as 5x stocks in starvation medium and added to the starved cells to a final 1x concentration concomitant with TGF–β1 addition. The final DMSO concentration in the assay was 0.6% in all wells. 48 h after TGF–β1 addition, the medium was removed and the cells were fixed in methanol for 10 min at room temperature (RT). After fixation, cells were washed 3 times with 1 x PBS and either stored at 4°C for up to 3 days or further processed. The fixed cells were blocked with 10% goat serum in PBS, 0.25% Tween–20 for 60 min at RT. The primary antibodies, i.e., mouse monoclonal anti–α–SMA (Sigma–Aldrich) and rabbit anti–FN antibody (Sigma–Aldrich), were diluted 1:400 in 10% goat serum in PBS, 0.25% Tween–20 and the fixed cells were incubated with the antibodies for 60 min at RT. After washing the cells 3 times with 1 x PBS, 0.25% Tween–20 the detection antibodies, i.e., goat anti–mouse AlexaFluor 488 (Invitrogen) and goat anti–rabbit AlexaFluor 647 (Invitrogen) were diluted 1:1000 in 1 x PBS, 0.25% Tween–20 and incubated for 1 h at RT together with 1 μg / ml DAPI to stain nuclei and HCS CellMask Orange Stain to label the entire cell. The stained cells were washed 3 times with 1 x PBS containing 0.25% Tween–20, followed by three washes in 1 x PBS, sealed with backing tape and stored at 4°C. Images were acquired on the Opera Phenix confocal high–content screening system (Perkin Elmer) using the 20–x water immersion lens.
Image analysis: The image data acquired with the HCS system were uploaded to ORBIT, an open source image analysis software developed at Idorsia Pharmaceuticals Ltd (http://www.orbit.bio), and analyzed using 288 CPUs in parallel on our computing grid with the ORBIT Cell–Classifier framework using an appropriate CellProfiler pipeline. DAPI stained nuclei were used to identify cells. α–SMA and FN regions were then identified and mapped to the corresponding nuclei for background correction, cell segmentation and cell feature computation to identify, classify and weigh over 400 features per cell. The computed features (S1 Table) comprise, but are not limited to, granularity, intensity, texture, area, shape and solidity of a cell in both α–SMA–and FN–expressing regions. The 0% compound effect (5 ng / ml TGF–β1) and the 100% compound effect (0 ng / ml TGF–β1) controls, were used to train and validate a support vector machine (SVM), a supervised learning model with associated learning algorithm that, once successfully validated, was applied to every cell in every well of the assayed microtiter plate. The SVM allowed autonomous weighting and classification of the characteristics and thus enabled the classifier to decide which characteristics were most relevant for the differentiation of the cell types. […] The classification of each cell was aggregated to a cell type ratio per well, represented as the computed percentage effect value per well indicative of the degree of myofibroblast differentiation. E.g. 100% equals complete myofibroblast differentiation, 0% indicates a pure fibroblast population without any signs of differentiation.
To identify compounds with potential to revert differentiated myofibroblasts to fibroblasts the assay procedures were modified.

[2] = tested on: COL1 protein in NHLF cells; assay: RapidFire MS/MS quantification of COL1 (IPQA), standard assay; format: cell-based, human
Description: Cell culture medium was removed and cells were lysed on ice by adding 5 μl / well of pre–cooled protein extraction buffer containing 10 mM Tris–HCl (pH 8.0), 6 M urea and 2 M thiourea and shaking on ice on a plate shaker at 600 rpm for 30 min.
Cell lysate was transferred to a 96–well polypropylene–PCR–plate. 15 μl / well denaturation buffer (6 M urea, 50 mM ammonium bicarbonate) and 2 μl / well of 50 mM TCEP were added and samples were denatured for 1 h at 60°C using the Veriti 96–well Fast Thermal Cycler System (Applied Biosystem) with a heated lid. Plates were allowed to cool to RT. Subsequently, 2 μl of 100 mM iodoacetamide were added per well to derivatize cysteine residues. Plates were then sealed and vortexed for 2 min in the dark and incubated for 30 min at 37°C in a thermal cycler with a heated lid. 90 μl of 50 mM ammonium bicarbonate pH 7.8 were added, followed by the addition of 10 μl of trypsin at 0.02 μg / ml. Samples were trypsin–digested overnight at 37°C in a thermal cycler with heated lid. […] Samples were desalted under vacuum using an Oasis HLB 96–well (30 μm particle size, 5 mg sorbent / well) reverse phase cartridge according to the manufacturer’s instructions and eluted with 170 μl of 90% acetonitrile, 0.1% formic acid. Samples were dried down with a flow of nitrogen at 40°C, left to cool to RT and re–suspended in 40 μl 5% acetonitrile, 0.1% formic acid on a plate shaker set to 1400 rpm for 5 min. Plates were centrifuged at 4,000 rpm for 10 min and 2 times 12 μl / well of supernatant were transferred into separate 96–well plates (Greiner Bio–One), sealed and stored at 4°C until analyzed by MS / MS.
Surrogate tryptic peptides were chosen for detection of COL1 (COL1A1), α–SMA (ACTA) and tubulin (TBA1A1) and crude synthetic peptides were purchased from Thermo Fischer. After several rounds of optimization following standard workflows, […] (COL1 / COL1A1), […] (α–SMA / ACTA) and […] LC–MS / MS analysis was performed on a RapidFire™ RF360 system (Agilent Technologies) coupled to an API 5500 (ABSciex) with positive ion electrospray ionization. […] Detection was performed using multiple reaction monitoring (MRM) mode to monitor parent⟶product ion transitions (m / z). […] The source parameters were curtain gas (CUR) nitrogen: 20 psig; collision gas (CAD): 7 psig; ion source gas 1: 50.0 psig; ion source gas 2: 50.0 psig; ion spray voltage (IS): 5500 V; turbo heater temperature (TEM): 600°C; entrance potential (EP): 10V. Peak areas for COL1A1 and ACTA were normalized by dividing by TBA1A peak area.

[3] = Homo sapiens, Col1, 48 h, NHLF, 5 ng/ml TGF–β1, 48 h, representative experiment of supplementary figure, read-out: IC50 on COL1 (curve of a single experiment)
[4] = Homo sapiens, Col1, 48 h, NHLF, 5 ng/ml TGF–β1, lysed 48 h after TGF–β1, normalized to tubulin, mean ± SD, read-out: MS / MS COL1 IC50
[5] = Homo sapiens, Col1, NHLF, 5 ng/ml TGF–β1, lysed 48 h after TGF–β1, normalized to tubulin, mean ± SD, read-out: MS / MS COL1 IC50
[6] = NHLF, 5 ng/ml TGF–β1, lysed 48 h after TGF–β1, normalized to tubulin, mean ± SD, read-out: MS / MS COL1 IC50
[7] = Homo sapiens, Col1, NHLF, 5 ng/ml TGF–β1, 48 h, representative experiment of supplementary figure, read-out: IC50 on COL1 (curve of a single experiment)

Molecule | IC50 [1] | IC50 [2, 4] | IC50 [2, 5] | further results
CCCCC[C@H](O)/C=C/[C@H]1[C@H](O)CC(=O)[C@@H]1CCCCCCC(=O)O [Alprostadil] | 280 nM | 5 ± 1.4 nM |  | IC50 [2, 3]: 3.2 nM; effect on basal COL1 expression ([2]; NHLF in the absence of TGF–β1): no effect
C[C@]12CC[C@H](O)C[C@H]1CC[C@@H]1[C@@H]2C[C@@H](O)[C@]2(C)[C@@H](C3=CC(=O)OC3)CC[C@]12O [Digoxigenin] | 76 nM |  | 85 ± 8 nM | 
Cc1cccc(-c2[nH]c(CNc3ccccc3F)nc2-c2ccc3ncnn3c2)n1 [EW–7197] | 18000 nM | 111 ± 30 nM |  | IC50 [2, 6]: 110 ± 30 nM
CC(C)(C)c1ccc(CN(Cc2cccc(OCC(=O)O)c2)S(=O)(=O)c2cccnc2)cc1 [Evatanepag] | 2300 nM |  | 11 nM | IC50 [2, 7]: 11.4 nM
O=C(CC1NCCCC1O)Cn1cnc2cc(Br)c(Cl)cc2c1=O (stereo not drawn) [Halofuginone] | 120 nM |  | 27 ± 1 nM | IC50 [2, 7]: 28 nM
O=C1CC[C@H](/C=C/[C@@H](O)Cc2ccccc2)N1CCCCCCc1nn[nH]n1 [Merck–19a] |  |  |  | IC50 [2, 6]: 17.7 ± 7 nM
COC(=O)c1ccc2c(c1)NC(=O)/C2=C(\Nc1ccc(N(C)C(=O)CN2CCN(C)CC2)cc1)c1ccccc1 [Nintedanib] | 6900 nM | 1600 nM |  | 
CCCCC[C@H](O)/C=C/[C@H]1[C@H](O)CC(=O)[C@@H]1C/C=C\CCCC(=O)O [PGE2, prostaglandin E2] | 145 nM | 4.9 ± 4.4 nM |  | IC50 [2, 3]: 1.8 nM
TGF–β1: transforming growth factor–β1, stimulus of myofibroblast differentiation |  |  |  | COL1 / tubulin ratio ([2]; NHLF, 5 ng/mL TGF-β1): 0.33 ± 0.07; EC50 of COL1 protein increase ([2]; NHLF, 48 hours, MS/MS (n = 8)): 0.05 ± 0.01 ng/mL; increase of COL1 protein ([2]; NHLF, at 48 hours): about 3 fold
